Measurements reported in patent publication US20230417736A1, “MONITORING MEMBRANE PROTEIN TRAFFICKING FOR DRUG DISCOVERY AND DRUG DEVELOPMENT” (UNIVERSITY OF HOUSTON SYSTEM, priority 2020, published 2023).

Molecular target: T1, human β2AR (Homo sapiens, UniProt P07550)
T1 construct: expressed in transfected cells
Assay: GPCR internalization assay using NanoBiT technology (β2AR-SmBiT with LgBiT-FYVE, early endosomes)
Assay type: cell-based
Conditions: for Internalization of GPCRs (luminescent signal) in the presence of endocytosis inhibitors: 10 μM of endocytosis inhibitors, cells pretreated, then ligand stimulation
Source text: Applicant initially focused on studying the different internalization rates of class A G-protein coupled receptors (GPCRs). For this, Applicant first established a set of GPCRs involved in a wide variety of physiological functions and diseases such as Galanin (GAL receptors), Chemokine receptors (CCR), and β-adrenergic receptors ((βAR). Applicant devised a strategy to monitor how the GPCR bound to its corresponding ligand is removed from the cell surface, subsequently localized in early endosomes, and then finally recycled into the cell membrane. To accomplish this, Applicant covalently linked a small fragment of NLuc (SmBiT) to the C-terminal of the receptor, where a flexible linker is located between the two proteins (FIGS. 9-10). This linker was designed to be composed mainly of glycine and alanine amino acids to provide flexibility and not to alter the pharmacological properties of the native receptor (FIGS. 2A-2B).
FYVE domains bind phosphatidylinositol 3-phosphate from early endosomes, in a manner that is dependent on its metal ion coordination and basic amino acids. This FYVE domain inserts into cell membranes in a pH-dependent manner, where it is composed of two small beta hairpins (or zinc knuckles) and followed by an alpha helix. Additionally, the FYVE finger binds two zinc ions where this FYVE finger has eight potential zinc coordinating cysteine positions and is characterized by having basic amino acids around the cysteines. To achieve this, the gene of the FYVE domain of the human Endofin (residues from Q739 to K806) was synthesized and covalently attached by molecular cloning into a large fragment of NLuc (LgBiT) at the N-termini (FIGS. 2A-2B).
The ability to monitor internalization in response to ligand stimulation was assessed in HEK293 cells expressing the corresponding human receptor. In the case of GPCRs, the assay was performed using the corresponding endogenous ligands (i.e., epinephrine).
HEK293 cells were maintained in Dulbecco's modified Eagle's medium (DMEM) supplemented with 10% fetal bovine serum (FBS), 100 U/ml penicillin G, and […] streptomycin (Invitrogen; Carlsbad, CA, USA). At 1 day before transfection, the cells were seeded in 96-well plates at a density of 2.5×10^4 cells per well. […] After a 10 minute incubation, 25 μl substrate (furimazine) was added, and once every minute subsequent luminescence measurements were taken for 5-10 minutes for signal stabilization. A total of 10 μl of ligand, antibody, or viral suspension was then added to each well and luminescence measurements were recorded immediately and once every minute for 1-3 hours (Synergy 2 Multi-Mode Microplate Reader BioTek, Winooski, VT, USA).

T1 sequence (P07550 whole entry): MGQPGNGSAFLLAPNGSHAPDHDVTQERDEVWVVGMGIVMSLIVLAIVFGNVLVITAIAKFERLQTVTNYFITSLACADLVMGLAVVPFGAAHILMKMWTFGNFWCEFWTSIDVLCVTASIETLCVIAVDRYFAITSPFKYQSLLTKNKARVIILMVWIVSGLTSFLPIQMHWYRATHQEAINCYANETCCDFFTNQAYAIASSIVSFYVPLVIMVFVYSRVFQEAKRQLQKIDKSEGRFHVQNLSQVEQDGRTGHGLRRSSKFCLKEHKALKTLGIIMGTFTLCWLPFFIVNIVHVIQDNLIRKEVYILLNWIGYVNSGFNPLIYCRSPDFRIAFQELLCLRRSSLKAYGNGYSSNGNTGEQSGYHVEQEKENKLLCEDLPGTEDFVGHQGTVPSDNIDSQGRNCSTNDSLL

Internalization of GPCRs (luminescent signal) in the presence of endocytosis inhibitors | SMILES | Blue luminescent signal (β2AR translocation into early endosomes) in response to the agonist (different concentrations of epinephrine)
– | CNC[C@H](O)c1ccc(O)c(O)c1 [epinephrine] | increased the blue luminescent signal in a concentration-dependent manner
inhibited | O=C(N/N=C/c1ccc(O)c(O)c1)c1cc2ccccc2cc1O [Dynasore] | –
inhibited | O=C1N=C(NS(=O)(=O)c2cccc3ccccc23)SC1=Cc1ccc(Br)cc1 [PiTStop] | –
inhibited | Cn1c(CNc2cccc(C(=O)NCc3ccccc3C(F)(F)F)c2)nnc1-c1ccncc1 [Cmpd101] | –
